14 molecules from ChEMBL document CHEMBL1201862, “PubChem BioAssay data set” (2004) can be followed below.

SMILES strings stand for the structures.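 Protocol summary: plate cells (96-well), add compound at 5 concentrations, incubate 48 h, interpolate endpoints linearly. At the GI50, growth is halved.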 Active and inactive are the calls of the source. No stated cut-off is given here; in the data, active = GI50 up to about 1.1 µM and inactive = higher.

Among the test systems are KM12; OVCAR-5; Malme-3M; PC-3; NCI-H522; SK-MEL-5; HCC 2998; K562; SF-268; SK-MEL-2; SK-OV-3; IGROV-1; A498; MDA-MB-435; SNB-19; Hs-578T; SNB-78; KM-20L2; LXFL 529.
Assay in all cases: NCI-60 cell line screen, 48 h

With `Nc1ccn(C2CCC(CO)O2)c(=S)n1` (stereo unspecified), the GI50 with KM12, in the test with OVCAR-5, in the test with Malme-3M, with PC-3, in the test with NCI-H522 and with SK-MEL-5 was > 100 µM (inactive) throughout. Also, the GI50 in the test on HCC 2998, in the test with K562, with SF-268, in the test on SK-MEL-2, with SK-OV-3 and in the test with IGROV-1 was > 100 µM (inactive) in each case. Further, the GI50 in the test on A498, in the test on MDA-MB-435, with SNB-19 and with Hs-578T was > 100 µM (inactive) each time.

For `O=C1NC2C(CCO)CC=C[C@H]2c2cc3c(cc21)OCO3` (stereo partly specified), the GI50 in the test on KM12 is > 100 µM (inactive); with Malme-3M, > 100 µM (inactive); in the test with NCI-H522 it was > 100 µM (inactive); in the test on SNB-78, > 100 µM (inactive); in the test with HCC 2998, > 10 µM (inactive); with KM-20L2, > 100 µM (inactive). The GI50 in the test on K562, with SF-268, in the test with LXFL 529, with SK-OV-3, in the test on IGROV-1 and in the test with SNB-19 was > 100 µM (inactive) each time.

For `Cc1c(C)n(-c2ccccc2)c2nc([S+](C)[O-])nc([S+](C)[O-])c12` (stereo unspecified), the GI50 is 13.3 µM (inactive) in the test with KM12; 15.3 µM (inactive) in the test on OVCAR-5; 1.98 µM (inactive) with Malme-3M; 7 µM (inactive) in the test with PC-3; 1.89 µM (inactive) with NCI-H522; 2.35 µM (inactive) in the test on SK-MEL-5. Also, the GI50 in the test on HCC 2998 is 15.2 µM (inactive); in the test on K562 it was 2.09 µM (inactive); in the test on SF-268 it was 7.14 µM (inactive); in the test on SK-MEL-2, 4.68 µM (inactive); in the test with SK-OV-3 it was 18.5 µM (inactive); in the test with IGROV-1, 3.79 µM (inactive). The GI50 in the test on A498 is 13.1 µM (inactive); in the test on MDA-MB-435, 3.1 µM (inactive); with SNB-19, 17.1 µM (inactive); in the test on Hs-578T, 25.5 µM (inactive).

`C/C(=N/O)C1CC=C(S(=O)(=O)c2ccccc2)C1` (stereo unspecified): the GI50 with KM12, with OVCAR-5, with Malme-3M, in the test on NCI-H522, in the test with HCC 2998 and in the test on KM-20L2 was > 100 µM (inactive) throughout. In addition, the GI50 in the test with K562, in the test with SF-268, in the test on LXFL 529, with SK-MEL-2, in the test with SK-OV-3 and in the test on IGROV-1 was > 100 µM (inactive) in each case. The GI50 in the test with SNB-19 was > 100 µM (inactive).

Take `CC1(C)[C@H]2CC[C@@]13C(=O)N1C(=O)O[C@@H]([C@H]1Cl)C(Cl)(COCc1ccccc1)C(=O)OCCO[C@H]3C2` (stereo partly specified): the GI50 with KM12 was 63.7 µM (inactive); with OVCAR-5 it was > 100 µM (inactive); in the test on Malme-3M it was 60.8 µM (inactive); in the test with PC-3 it was 38.2 µM (inactive); with NCI-H522, 34.8 µM (inactive); in the test on SK-MEL-5 it was 29.9 µM (inactive). Further, the GI50 in the test on HCC 2998 was 57.3 µM (inactive); in the test with K562, 24.3 µM (inactive); in the test on SF-268 it was > 100 µM (inactive); with SK-MEL-2, 85.5 µM (inactive); in the test on SK-OV-3 it was > 100 µM (inactive); in the test on IGROV-1 it was > 100 µM (inactive). The GI50 with A498 was > 100 µM (inactive); in the test with MDA-MB-435, 42.8 µM (inactive); with SNB-19 it was > 100 µM (inactive); with Hs-578T it was 88.1 µM (inactive).

Take `CCOC(=O)c1ccc(NC(=O)SCCC(=O)O)cc1`: the GI50 with KM12 is > 100 µM (inactive); in the test on OVCAR-5, > 100 µM (inactive); with SNB-78 it was > 100 µM (inactive); in the test with HCC 2998 it was > 100 µM (inactive); in the test with KM-20L2, > 100 µM (inactive); with K562 it was 63.1 µM (inactive). Besides, the GI50 is 0.426 µM (active) with SF-268; 69 µM (inactive) in the test on LXFL 529; > 100 µM (inactive) in the test on SK-MEL-2; 35.4 µM (inactive) with IGROV-1; > 100 µM (inactive) in the test on A498; > 100 µM (inactive) in the test on SNB-19.

For `CCN(CC)CCCNC(=O)Cc1ccccc1Nc1c(Cl)cccc1Cl`, the GI50 in the test on KM12 was 19.8 µM (inactive); in the test with OVCAR-5, 11.4 µM (inactive); in the test on SK-MEL-5 it was 3.85 µM (inactive); in the test with SNB-78, 15.9 µM (inactive); in the test on HCC 2998 it was 3.01 µM (inactive); in the test on KM-20L2, 3.81 µM (inactive). Also, the GI50 in the test with K562 was 5.6 µM (inactive); in the test on SF-268, 16.1 µM (inactive); with LXFL 529, 7.67 µM (inactive); in the test on SK-OV-3 it was 15.3 µM (inactive); in the test with IGROV-1, 18.4 µM (inactive); with SNB-19, 16.9 µM (inactive).

`COc1ccc([C@@H]2C[C@@H]3C(=O)OC(=O)[C@@H]3c3c2c2ccccc2n3C)cc1`: the GI50 in the test with KM12, in the test with Malme-3M, with NCI-H522, with HCC 2998, in the test with K562 and in the test with SF-268 was > 100 µM (inactive) throughout. The GI50 in the test with LXFL 529, in the test on SK-MEL-2, in the test on SK-OV-3, in the test with IGROV-1, with A498 and in the test with SNB-19 was > 100 µM (inactive) throughout.

For the molecule `CCOC(=O)CSC1NC(C(=O)OC)CC1OC` (stereo unspecified), the GI50 in the test with KM12, in the test on OVCAR-5, in the test with Malme-3M, with PC-3, in the test on NCI-H522 and with SK-MEL-5 was > 100 µM (inactive) each time. Moreover, the GI50 in the test on HCC 2998, with K562, in the test on SF-268, in the test with SK-MEL-2, in the test on SK-OV-3 and with IGROV-1 was > 100 µM (inactive) in each case. The GI50 in the test on A498, in the test with MDA-MB-435, with SNB-19 and with Hs-578T was > 100 µM (inactive) in each case.

Consider `CNc1ncc(-c2nnnn2-c2ccccc2)c(CN(C)C)n1`, for which the GI50 with KM12, with OVCAR-5, in the test on Malme-3M, with PC-3, with NCI-H522 and with SK-MEL-5 was > 100 µM (inactive) throughout. In addition, the GI50 in the test with HCC 2998, in the test on K562, in the test on SF-268, with SK-MEL-2, in the test on SK-OV-3 and in the test on IGROV-1 was > 100 µM (inactive) each time. The GI50 in the test with A498, with MDA-MB-435, in the test with SNB-19 and with Hs-578T was > 100 µM (inactive) each time.

As to `CC[N+](CC)(CC)Cc1cn(S(=O)(=O)c2ccccc2)c2ccccc12`, the GI50 with KM12, in the test with OVCAR-5, in the test on Malme-3M, in the test with NCI-H522, in the test on SK-MEL-5 and in the test with HCC 2998 was > 100 µM (inactive) throughout. For the same molecule, the GI50 in the test with KM-20L2, in the test on K562, in the test with SF-268, with SK-MEL-2, in the test with IGROV-1 and with SNB-19 was > 100 µM (inactive) each time.

As for `N#C[BH2-][n+]1ccc(C(=O)NNCc2cccc(C(F)(F)F)c2)cc1`, the GI50 with KM12 was 4.76 µM (inactive); in the test with OVCAR-5 it was 21.2 µM (inactive); with Malme-3M, 3.54 µM (inactive); in the test on PC-3, 13.8 µM (inactive); with NCI-H522 it was 16.3 µM (inactive); with SK-MEL-5 it was 1.83 µM (inactive). The GI50 is 7.11 µM (inactive) in the test with HCC 2998; 20.5 µM (inactive) in the test on K562; 4.82 µM (inactive) in the test with SF-268; 12.1 µM (inactive) with SK-MEL-2; 8.93 µM (inactive) in the test with SK-OV-3; 30.1 µM (inactive) in the test on IGROV-1. For the same molecule, the GI50 in the test on A498 was 21.6 µM (inactive); with MDA-MB-435, 17.7 µM (inactive); in the test on SNB-19, 13.6 µM (inactive); with Hs-578T, 4.59 µM (inactive).

As for `COc1ccc(NC(=S)N/N=C2\C(=O)Nc3ccccc32)cc1`, the GI50 in the test on KM12 was 13 µM (inactive); in the test on OVCAR-5, 65 µM (inactive); with Malme-3M, 12.9 µM (inactive); in the test on PC-3 it was 19.2 µM (inactive); in the test on NCI-H522 it was 18.7 µM (inactive); in the test on SK-MEL-5, 9.27 µM (inactive). In addition, the GI50 in the test on HCC 2998 is 27.2 µM (inactive); in the test with K562 it was 5.69 µM (inactive); in the test with SF-268, 17.5 µM (inactive); in the test with SK-MEL-2, 40.1 µM (inactive); with SK-OV-3, 20.8 µM (inactive); in the test on IGROV-1, 4.83 µM (inactive). In addition, the GI50 in the test with A498 is 40.6 µM (inactive); in the test with MDA-MB-435 it was 52.2 µM (inactive); with SNB-19 it was 41.7 µM (inactive); in the test on Hs-578T, 29.2 µM (inactive).

With `O=C(Cn1ccnc1[N+](=O)[O-])NCCO` [ETANIDAZOLE], the GI50 with KM12, in the test with OVCAR-5, in the test on Malme-3M, with PC-3, in the test with NCI-H522 and in the test with SK-MEL-5 was > 100 µM (inactive) in each case. The GI50 was 41.8 µM (inactive) in the test on HCC 2998; > 100 µM (inactive) in the test with K562; > 100 µM (inactive) in the test on SF-268; > 100 µM (inactive) in the test on SK-MEL-2; > 100 µM (inactive) in the test with SK-OV-3; > 100 µM (inactive) in the test with IGROV-1. Moreover, the GI50 with A498, with MDA-MB-435, in the test with SNB-19 and in the test on Hs-578T was > 100 µM (inactive) each time.
